Article PMC3285636, “Identification by Virtual Screening and In Vitro Testing of Human DOPA Decarboxylase Inhibitors” (PLoS ONE, 2012)
Like-named read-outs stand apart in the source and are kept apart here.

Key:
[1] = system: pig kidney DDC; details: cited from earlier work
[2] = set-up: method as in PMID 580398; details: animals and humans; cited from earlier work
[3] = molecular target: T1, human DDC (Homo sapiens, UniProt P20711); assay: Assay of the inhibitory activity: spectrophotometric measurement of dopamine production by DDC; assay type: biochemical; details: for IC50: 0.1 mM L-Dopa, pH 7.4, 25°C, 9 concentrations in duplicate, read-out: IC50; for Ki: read-out: Ki; for BE (binding efficiency): binding energy per unit of mass, from Ki and molecular weight in kDa
T1 construct: made in house
T1 sequence (P20711 1-480): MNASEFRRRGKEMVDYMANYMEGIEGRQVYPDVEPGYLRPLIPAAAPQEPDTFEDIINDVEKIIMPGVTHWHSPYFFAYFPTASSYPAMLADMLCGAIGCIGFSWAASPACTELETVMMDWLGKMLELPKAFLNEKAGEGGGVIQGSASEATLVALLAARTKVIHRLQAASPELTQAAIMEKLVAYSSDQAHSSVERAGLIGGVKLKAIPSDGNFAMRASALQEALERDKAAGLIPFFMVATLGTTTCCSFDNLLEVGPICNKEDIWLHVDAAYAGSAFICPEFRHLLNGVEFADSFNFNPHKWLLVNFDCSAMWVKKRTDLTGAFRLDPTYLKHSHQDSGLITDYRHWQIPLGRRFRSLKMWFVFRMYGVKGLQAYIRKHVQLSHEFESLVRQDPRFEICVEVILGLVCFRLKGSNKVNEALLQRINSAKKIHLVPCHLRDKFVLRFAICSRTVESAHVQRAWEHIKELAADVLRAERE
Procedure: DDC activity was determined by measuring the production of dopamine with a spectrophotometric assay outlined by Sherald et al. and modified by Charteris and John. The reaction was carried out in 0.1 M potassium phosphate buffer pH 7.4 at 25°C for 1 min and stopped by inactivation of the enzyme at 100°C for 90 sec. The inhibitory assay was performed by measuring the decarboxylase activity of DDC with 50 nM enzyme, 0.1 mM L-Dopa, and 10 µM PLP in the presence and in the absence of a fixed amount of each compound. Various amounts of dimethyl sulphoxyde (DMSO) were necessary to solubilize the compounds in 100 mM potassium phosphate buffer, pH 7.4. […] Compounds were evaluated at 9 concentrations, and each in duplicate. IC50 values were derived by nolinear regression analysis. The related inhibition type of the compounds on human DDC was identified from Lineweaver–Burk plots, and Ki and/or Ki′ values for the inhibitors tested were calculated by the software Origin 7.0.

[4] = molecular target: T1, human DDC; assay: Enzyme-ligand equilibrium dissociation constant from visible CD signal changes of DDC; assay type: binding; details: change of 420 nm or 335 nm CD band, 100 mM potassium phosphate pH 7.4
Procedure: The equilibrium dissociation constant for each tested compound from DDC was determined by monitoring the decrease in the 420 nm CD signal of DDC (7 µM) in the presence of various ligand concentrations in 100 mM potassium phosphate buffer, pH 7.4. In any case, the maximun DMSO concentration in the mixture was kept lower than 1% (v/v). The KD values were obtained from the fitting of the data to the equation [drawing 3] where [E]t and [L]t represent the total concentrations of DDC dimer and ligand, respectively, Y refers to the visible CD signal change at 420 nm at the ligand concentration [L], and Ymax refers to the CD signal when all enzyme molecules are complexed with the ligand. CD measurements were performed with a Jasco J-710 spectropolarimeter using quartz cuvettes with 1 cm path length.

IC50 ([3]; 50 nM enzyme, 10 µM PLP) | BE (binding efficiency) [3] | Kd [4] | Structure (SMILES) | DDC inhibition in words [1] | other results
– | – | – | NNCc1ccc(O)c(O)c1O [trihydroxybenzylhydrazine] | powerful irreversible DDC inhibitors | –
– | – | – | NC(CO)C(=O)NNCc1ccc(O)c(O)c1O (centres unmarked) [benserazide, trihydroxybenzylhydrazine seryl derivative] | not a powerful DDC inhibitor | Metabolism before reaching the arterial blood [2]: completely metabolized before it reaches the arterial blood
570 ± 66 µM | 11.9 | 240 ± 68 µM | O=C(O)c1cccc(NS(=O)(=O)c2ccc3nnn(O)c3c2)c1 [Compound 1] | – | Ki ([3]; 50 nM enzyme, L-Dopa, 10 µM PLP, 0.1 M potassium phosphate pH 7.4, 25°C, from Lineweaver–Burk plots): 106 ± 7 µM; Inhibition of DDC activity ([3]; at a concentration in which solubility of the compound was maximum): ≥ 70%; Inhibition profile ([3]; type of inhibition from Lineweaver–Burk plots): competitive inhibition
– | – | – | C[C@@](Cc1ccc(O)c(O)c1)(NN)C(=O)O [carbidopa, L-α-methyl-α-hydrazino-3,4-dihydroxyphenylpropionic acid] | powerful irreversible DDC inhibitors | –
27.5 ± 3.3 µM | 19,9 | 9.1 ± 0.3 µM | Cc1nnc(S)n1/N=C/c1ccc(O)c(O)c1 [Compound 39] | – | Ki ([3]; competitive inhibition, Table 4, third screening): 10.8 ± 0.8 µM
